Assay results as given in BindingDB's records for patent US10053471 (Boehringer Ingelheim International, 2018).
pEC50: −log10 of the molar value.

Target: 5'-AMP-activated protein kinase catalytic subunit alpha-1/subunit beta-1/subunit gamma-1 (Homo sapiens, UniProt P54619+Q13131+Q9Y478)
Assay: in vitro AMPK activation assays
Conditions: pH 7; 25 °C
Experimental: The test compounds were dissolved in 100% DMSO at a concentration of 10 mM and in a first step diluted in DMSO to a concentration of 5 mM, followed by serial dilution steps in 100% DMSO. Dilution factor and number of dilution steps may vary. Typically 8 different concentrations by 1:5 dilutions were prepared, further dilutions of the substances were carried out with test buffer (20 mM Hepes (pH 7.0), 15 mM MgCl2, 0.025% BSA, 0.01% Brij 35) until a concentration was reached which was 5 times above the final test concentration. 2 μl aliquots of these dilutions were transferred into a 384-well Optiplate (Perkin Elmer, #6007290). Typically the start concentration for serial dilutions in the assay is 10 μM. Typically AMPK was diluted to 25 μg/ml in the test buffer and 4 μl of this dilution were used in the kinase test (final concentration of AMPK is 10 μg/ml in a total volume of 10 μl for the kinase reaction). Kinase concentrations may vary depending on activity of the preparation batches. […] The plates were read with an Envision Luminescence Reader (Perkin-Elmer).

5'-AMP-activated protein kinase catalytic subunit alpha-1/subunit beta-1/subunit gamma-1, sequence (Q9Y478 whole entry): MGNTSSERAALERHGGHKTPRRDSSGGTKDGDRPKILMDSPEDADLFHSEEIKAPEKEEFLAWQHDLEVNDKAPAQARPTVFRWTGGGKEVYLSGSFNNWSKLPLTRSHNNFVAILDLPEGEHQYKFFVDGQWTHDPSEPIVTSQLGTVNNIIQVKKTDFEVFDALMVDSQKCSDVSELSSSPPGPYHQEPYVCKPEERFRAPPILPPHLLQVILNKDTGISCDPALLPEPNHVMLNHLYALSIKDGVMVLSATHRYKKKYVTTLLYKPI
5'-AMP-activated protein kinase catalytic subunit alpha-1/subunit beta-1/subunit gamma-1, sequence (P54619 whole entry): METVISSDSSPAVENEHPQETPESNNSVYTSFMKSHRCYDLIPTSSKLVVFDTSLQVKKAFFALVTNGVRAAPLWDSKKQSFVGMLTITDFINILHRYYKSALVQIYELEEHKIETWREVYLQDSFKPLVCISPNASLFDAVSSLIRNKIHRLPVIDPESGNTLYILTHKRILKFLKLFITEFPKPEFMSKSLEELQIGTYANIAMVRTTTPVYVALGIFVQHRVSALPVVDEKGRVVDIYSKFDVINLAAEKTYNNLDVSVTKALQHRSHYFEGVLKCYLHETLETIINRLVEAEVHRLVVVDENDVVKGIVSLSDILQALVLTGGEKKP
5'-AMP-activated protein kinase catalytic subunit alpha-1/subunit beta-1/subunit gamma-1, sequence (Q13131 whole entry): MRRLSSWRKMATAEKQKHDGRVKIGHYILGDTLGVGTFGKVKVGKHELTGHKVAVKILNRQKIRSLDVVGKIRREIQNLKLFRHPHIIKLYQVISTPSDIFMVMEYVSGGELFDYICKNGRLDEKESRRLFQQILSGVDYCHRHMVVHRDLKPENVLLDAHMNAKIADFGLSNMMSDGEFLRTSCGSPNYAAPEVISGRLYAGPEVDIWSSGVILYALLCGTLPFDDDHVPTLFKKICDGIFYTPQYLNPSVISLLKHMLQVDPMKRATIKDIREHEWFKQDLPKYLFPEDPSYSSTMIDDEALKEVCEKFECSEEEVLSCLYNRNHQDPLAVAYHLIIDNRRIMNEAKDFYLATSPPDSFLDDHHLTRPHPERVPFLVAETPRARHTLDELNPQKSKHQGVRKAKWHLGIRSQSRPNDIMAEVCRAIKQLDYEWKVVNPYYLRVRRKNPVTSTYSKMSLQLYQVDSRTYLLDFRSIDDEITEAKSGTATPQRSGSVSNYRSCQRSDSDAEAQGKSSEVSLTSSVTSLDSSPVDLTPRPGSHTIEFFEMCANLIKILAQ

**Q.** How did the pEC50 turn out when `CS(=N)(=O)c1ccc(-c2ccc(-c3nc4[nH]c(O[C@@H]5CO[C@H]6[C@@H]5OC[C@H]6O)nc4cc3Cl)cc2)c(F)c1` (stereo partly specified) [US10053471, 13] was run?
**A.** 7.15
